{"source": "ChEMBL document CHEMBL5360581", "about": "“Discovery of a novel dual functional phenylpyrazole-styryl hybrid that induces apoptotic and autophagic cell death in bladder cancer cells” (Eur J Med Chem, 2023)", "note": "Calls of active or inactive are those of the source. The calls are words filed in the database; no cut-off is given here."}
{"system": "SW-620", "experiment": "Antiproliferative activity against human SW620 cells assessed as reduction in cell viability at 20 uM measured for 72 hrs by MTT assay", "assay_type": "functional, cell-based", "settings": "not given"}
{"compound": "COc1ccc(/C=C/c2cc(-c3ccccc3O)n(-c3ccccc3)n2)cc1OC", "Activity": "Active"}
{"compound": "COc1cc(/C=C/c2cc(-c3ccccc3O)n(-c3ccccc3)n2)cc(OC)c1OC", "Activity": "Active"}
{"compound": "O=[N+]([O-])c1cccc(/C=C/c2cc(-c3ccccc3O)n(-c3ccccc3)n2)c1", "Activity": "Active"}
{"compound": "Cc1ccc(/C=C/c2cc(-c3ccccc3O)n(-c3ccccc3)n2)s1", "Activity": "Active"}
{"system": "A549", "experiment": "Antiproliferative activity against human A549 cells assessed as reduction in cell viability at 20 uM measured for 72 hrs by MTT assay", "assay_type": "functional, cell-based", "settings": "not given"}
{"compound": "COc1ccc(/C=C/c2cc(-c3ccccc3O)n(-c3ccccc3)n2)cc1OC", "Activity": "Active"}
{"compound": "COc1cc(/C=C/c2cc(-c3ccccc3O)n(-c3ccccc3)n2)cc(OC)c1OC", "Activity": "Active"}
{"compound": "O=[N+]([O-])c1cccc(/C=C/c2cc(-c3ccccc3O)n(-c3ccccc3)n2)c1", "Activity": "Active"}
{"compound": "Cc1ccc(/C=C/c2cc(-c3ccccc3O)n(-c3ccccc3)n2)s1", "Activity": "Active"}
{"system": "EJ-28", "experiment": "Antiproliferative activity against human EJ-28 cells assessed as reduction in cell viability at 20 uM measured for 72 hrs by MTT assay", "assay_type": "functional, cell-based", "settings": "not given"}
{"compound": "COc1ccc(/C=C/c2cc(-c3ccccc3O)n(-c3ccccc3)n2)cc1OC", "Activity": "Active"}
{"compound": "COc1cc(/C=C/c2cc(-c3ccccc3O)n(-c3ccccc3)n2)cc(OC)c1OC", "Activity": "Active"}
{"compound": "O=[N+]([O-])c1cccc(/C=C/c2cc(-c3ccccc3O)n(-c3ccccc3)n2)c1", "Activity": "Active"}
{"compound": "Cc1ccc(/C=C/c2cc(-c3ccccc3O)n(-c3ccccc3)n2)s1", "Activity": "Active"}
{"system": "HT-1080", "experiment": "Antiproliferative activity against human HT-1080 cells assessed as reduction in cell viability at 20 uM measured for 72 hrs by MTT assay", "assay_type": "functional, cell-based", "settings": "not given"}
{"compound": "COc1ccc(/C=C/c2cc(-c3ccccc3O)n(-c3ccccc3)n2)cc1OC", "Activity": "Active"}
{"compound": "COc1cc(/C=C/c2cc(-c3ccccc3O)n(-c3ccccc3)n2)cc(OC)c1OC", "Activity": "Active"}
{"compound": "O=[N+]([O-])c1cccc(/C=C/c2cc(-c3ccccc3O)n(-c3ccccc3)n2)c1", "Activity": "Active"}
{"compound": "Cc1ccc(/C=C/c2cc(-c3ccccc3O)n(-c3ccccc3)n2)s1", "Activity": "Active"}
{"system": "MCF7", "experiment": "Antiproliferative activity against human MCF7 cells assessed as reduction in cell viability at 20 uM measured for 72 hrs by MTT assay", "assay_type": "functional, cell-based", "settings": "not given"}
{"compound": "COc1ccc(/C=C/c2cc(-c3ccccc3O)n(-c3ccccc3)n2)cc1OC", "Activity": "Active"}
{"compound": "COc1cc(/C=C/c2cc(-c3ccccc3O)n(-c3ccccc3)n2)cc(OC)c1OC", "Activity": "Active"}
{"compound": "O=[N+]([O-])c1cccc(/C=C/c2cc(-c3ccccc3O)n(-c3ccccc3)n2)c1", "Activity": "Active"}
{"compound": "Cc1ccc(/C=C/c2cc(-c3ccccc3O)n(-c3ccccc3)n2)s1", "Activity": "Active"}
{"system": "SW-620", "experiment": "Cytotoxicity against human SW620 cells assessed inhibition of cell growth incubated for 72 hrs by MTT assay", "assay_type": "functional, cell-based", "settings": "SW-620, 72 h", "units": {"IC50": "µM"}}
{"compound": "COc1ccc(/C=C/c2cc(-c3ccccc3O)n(-c3ccccc3)n2)cc1OC", "IC50": 18.5}
{"compound": "COc1cc(/C=C/c2cc(-c3ccccc3O)n(-c3ccccc3)n2)cc(OC)c1OC", "IC50": 7.6}
{"compound": "O=[N+]([O-])c1cccc(/C=C/c2cc(-c3ccccc3O)n(-c3ccccc3)n2)c1", "IC50": 9.7}
{"compound": "Cc1ccc(/C=C/c2cc(-c3ccccc3O)n(-c3ccccc3)n2)s1", "IC50": 16.2}
{"system": "A549", "experiment": "Cytotoxicity against human A549 cells assessed inhibition of cell growth incubated for 72 hrs by MTT assay", "assay_type": "functional, cell-based", "settings": "A549, 72 h", "units": {"IC50": "µM"}}
{"compound": "COc1ccc(/C=C/c2cc(-c3ccccc3O)n(-c3ccccc3)n2)cc1OC", "IC50": 19.2}
{"compound": "COc1cc(/C=C/c2cc(-c3ccccc3O)n(-c3ccccc3)n2)cc(OC)c1OC", "IC50": 14.6}
{"compound": "O=[N+]([O-])c1cccc(/C=C/c2cc(-c3ccccc3O)n(-c3ccccc3)n2)c1", "IC50": 21.7}
{"compound": "Cc1ccc(/C=C/c2cc(-c3ccccc3O)n(-c3ccccc3)n2)s1", "IC50": 14.5}
{"system": "EJ-28", "experiment": "Cytotoxicity against human EJ-28 cells assessed inhibition of cell growth incubated for 72 hrs by MTT assay", "assay_type": "functional, cell-based", "settings": "EJ-28, 72 h", "units": {"IC50": "µM"}}
{"compound": "COc1ccc(/C=C/c2cc(-c3ccccc3O)n(-c3ccccc3)n2)cc1OC", "IC50": 18.6}
{"compound": "COc1cc(/C=C/c2cc(-c3ccccc3O)n(-c3ccccc3)n2)cc(OC)c1OC", "IC50": 12.3}
{"compound": "O=[N+]([O-])c1cccc(/C=C/c2cc(-c3ccccc3O)n(-c3ccccc3)n2)c1", "IC50": 7.4}
{"compound": "Cc1ccc(/C=C/c2cc(-c3ccccc3O)n(-c3ccccc3)n2)s1", "IC50": 11}
{"system": "HT-1080", "experiment": "Cytotoxicity against human HT-1080 cells assessed inhibition of cell growth incubated for 72 hrs by MTT assay", "assay_type": "functional, cell-based", "settings": "HT-1080, 72 h", "units": {"IC50": "µM"}}
{"compound": "COc1ccc(/C=C/c2cc(-c3ccccc3O)n(-c3ccccc3)n2)cc1OC", "IC50": 15.9}
{"compound": "COc1cc(/C=C/c2cc(-c3ccccc3O)n(-c3ccccc3)n2)cc(OC)c1OC", "IC50": 14.1}
{"compound": "O=[N+]([O-])c1cccc(/C=C/c2cc(-c3ccccc3O)n(-c3ccccc3)n2)c1", "IC50": 16.5}
{"compound": "Cc1ccc(/C=C/c2cc(-c3ccccc3O)n(-c3ccccc3)n2)s1", "IC50": 14.2}
{"system": "MCF7", "experiment": "Cytotoxicity against human MCF7 cells assessed inhibition of cell growth incubated for 72 hrs by MTT assay", "assay_type": "functional, cell-based", "settings": "MCF7, 72 h", "units": {"IC50": "µM"}}
{"compound": "COc1ccc(/C=C/c2cc(-c3ccccc3O)n(-c3ccccc3)n2)cc1OC", "IC50": 13}
{"compound": "COc1cc(/C=C/c2cc(-c3ccccc3O)n(-c3ccccc3)n2)cc(OC)c1OC", "IC50": 10.4}
{"compound": "O=[N+]([O-])c1cccc(/C=C/c2cc(-c3ccccc3O)n(-c3ccccc3)n2)c1", "IC50": 15}
{"compound": "Cc1ccc(/C=C/c2cc(-c3ccccc3O)n(-c3ccccc3)n2)s1", "IC50": 12.6}
{"system": "not listed separately", "experiment": "Cytotoxicity against human NHDF cells assessed inhibition of cell growth incubated for 72 hrs by MTT assay", "assay_type": "toxicity, cell-based", "settings": "not given", "units": {"IC50 at 72 h": "µM"}}
{"compound": "COc1ccc(/C=C/c2cc(-c3ccccc3O)n(-c3ccccc3)n2)cc1OC", "IC50 at 72 h": "> 50"}
{"compound": "COc1cc(/C=C/c2cc(-c3ccccc3O)n(-c3ccccc3)n2)cc(OC)c1OC", "IC50 at 72 h": "> 50"}
{"compound": "O=[N+]([O-])c1cccc(/C=C/c2cc(-c3ccccc3O)n(-c3ccccc3)n2)c1", "IC50 at 72 h": 42.9}
{"compound": "Cc1ccc(/C=C/c2cc(-c3ccccc3O)n(-c3ccccc3)n2)s1", "IC50 at 72 h": 17.9}
{"system": "not listed separately", "experiment": "Selectivity index, ratio of IC50 for cytotoxicity against human NHDF cells to IC50 for cytotoxicity against human SW620 cells", "settings": "not given"}
{"compound": "COc1ccc(/C=C/c2cc(-c3ccccc3O)n(-c3ccccc3)n2)cc1OC", "Ratio IC50": ">2.6"}
{"compound": "COc1cc(/C=C/c2cc(-c3ccccc3O)n(-c3ccccc3)n2)cc(OC)c1OC", "Ratio IC50": ">3.4"}
{"compound": "O=[N+]([O-])c1cccc(/C=C/c2cc(-c3ccccc3O)n(-c3ccccc3)n2)c1", "Ratio IC50": 2}
{"compound": "Cc1ccc(/C=C/c2cc(-c3ccccc3O)n(-c3ccccc3)n2)s1", "Ratio IC50": 1.1}
{"system": "not listed separately", "experiment": "Selectivity index, ratio of IC50 for cytotoxicity against human NHDF cells to IC50 for cytotoxicity against human A549 cells", "assay_type": "toxicity, cell-based", "settings": "NHDF cells and A549 cells, read-out: Ratio IC50"}
{"compound": "COc1ccc(/C=C/c2cc(-c3ccccc3O)n(-c3ccccc3)n2)cc1OC", "selectivity ratio": "> 2.6"}
{"compound": "COc1cc(/C=C/c2cc(-c3ccccc3O)n(-c3ccccc3)n2)cc(OC)c1OC", "selectivity ratio": "> 3.4"}
{"compound": "O=[N+]([O-])c1cccc(/C=C/c2cc(-c3ccccc3O)n(-c3ccccc3)n2)c1", "selectivity ratio": 2}
{"compound": "Cc1ccc(/C=C/c2cc(-c3ccccc3O)n(-c3ccccc3)n2)s1", "selectivity ratio": 1.1}
{"system": "not listed separately", "experiment": "Selectivity index, ratio of IC50 for cytotoxicity against human NHDF cells to IC50 for cytotoxicity against human EJ-28 cells", "settings": "not given"}
{"compound": "COc1ccc(/C=C/c2cc(-c3ccccc3O)n(-c3ccccc3)n2)cc1OC", "Ratio IC50": ">2.6"}
{"compound": "COc1cc(/C=C/c2cc(-c3ccccc3O)n(-c3ccccc3)n2)cc(OC)c1OC", "Ratio IC50": ">3.4"}
{"compound": "O=[N+]([O-])c1cccc(/C=C/c2cc(-c3ccccc3O)n(-c3ccccc3)n2)c1", "Ratio IC50": 2}
{"compound": "Cc1ccc(/C=C/c2cc(-c3ccccc3O)n(-c3ccccc3)n2)s1", "Ratio IC50": 1.1}
{"system": "not listed separately", "experiment": "Selectivity index, ratio of IC50 for cytotoxicity against human NHDF cells to IC50 for cytotoxicity against human HT-1080 cells", "settings": "not given"}
{"compound": "COc1ccc(/C=C/c2cc(-c3ccccc3O)n(-c3ccccc3)n2)cc1OC", "Ratio IC50": ">2.6"}
{"compound": "COc1cc(/C=C/c2cc(-c3ccccc3O)n(-c3ccccc3)n2)cc(OC)c1OC", "Ratio IC50": ">3.4"}
{"compound": "O=[N+]([O-])c1cccc(/C=C/c2cc(-c3ccccc3O)n(-c3ccccc3)n2)c1", "Ratio IC50": 2}
{"compound": "Cc1ccc(/C=C/c2cc(-c3ccccc3O)n(-c3ccccc3)n2)s1", "Ratio IC50": 1.1}
{"system": "not listed separately", "experiment": "Selectivity index, ratio of IC50 for cytotoxicity against human NHDF cells to IC50 for cytotoxicity against human MCF7 cells", "assay_type": "toxicity, cell-based", "settings": "NHDF cells and MCF7 cells, read-out: Ratio IC50"}
{"compound": "COc1ccc(/C=C/c2cc(-c3ccccc3O)n(-c3ccccc3)n2)cc1OC", "selectivity ratio": "> 2.6"}
{"compound": "COc1cc(/C=C/c2cc(-c3ccccc3O)n(-c3ccccc3)n2)cc(OC)c1OC", "selectivity ratio": "> 3.4"}
{"compound": "O=[N+]([O-])c1cccc(/C=C/c2cc(-c3ccccc3O)n(-c3ccccc3)n2)c1", "selectivity ratio": 2}
{"compound": "Cc1ccc(/C=C/c2cc(-c3ccccc3O)n(-c3ccccc3)n2)s1", "selectivity ratio": 1.1}
